Results taken from US4593093A, “Acyl derivatives” (priority 1980, dated 1986).
Counter-ions that a name gives are not always drawn. Like-named read-outs stand apart in the source and are kept apart here.

Columns and labels:
Streptococcus pyogenes [1] = assay: Activity in vitro: minimum inhibitory concentration; format: cell-based
Enterobacter cloacae [2] = assay: as above; format: cell-based
Streptococcus faecalis = assay: as above; format: cell-based; settings: Enterococcus faecalis
Proteus vulgaris = assay: as above; format: cell-based
Proteus mirabilis = assay: as above; format: cell-based
Staphylococcus epidermis = assay: as above; format: cell-based
Klebsiella pseumoniae = assay: as above; format: cell-based
Neisseria moningitidis = assay: Activity in vivo: survival of intraperitoneally infected mice; settings: sc, 96 h; mice infected i.p. with Neisseria moningitidis; s.c. twice, 1 h and 4 h after infection; survival on 4th day; read-out: CD50 (dosage at which 50% of the animals survive)
Experimental: Groups of 5 mice are infected intraperitoneally with an aqueous suspension of various pathogens. The test substance in physiological sodium chloride solution is administered subcutaneously twice, i.e. 1 hour and 3 hours after the infection. The number of surviving animals is determined on the 4th day. Various dosages are administered and that dosage at which 50% of the experimental animals survive (CD50, mg/kg) is determined by interpolation.
**Administered subcutaneously twice: 1 hour and 4 hours after the […]

Proteus rettgeri = assay: Activity in vitro: minimum inhibitory concentration; format: cell-based; settings: Providencia rettgeri
Streptococcus viridans = assay: as above; format: cell-based
Citrobacter freundii = assay: as above; format: cell-based
Enterobacter aerogenes = assay: as above; format: cell-based; settings: Klebsiella aerogenes
Haemophilus influenzae = assay: Activity in vivo: survival of intraperitoneally infected mice; settings: sc, 96 h; mice infected i.p. with Haemophilus influenzae; s.c. twice, 1 h and 3 h after infection; survival on 4th day; read-out: CD50 (dosage at which 50% of the animals survive)
Outline: (§1)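 Intraperitoneal infection of 5-mouse groups, followed by two subcutaneous saline-formulated doses at 1 h and 3 h. CD50 in mg/kg interpolated from day-4 survival.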

Streptococcus pyogenes [3] = assay: as above; settings: sc, 96 h; mice infected i.p. with Streptococcus pyogenes; s.c. twice, 1 h and 3 h after infection; survival on 4th day; read-out: CD50 (dosage at which 50% of the animals survive)
Outline: (§2)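 The read-out was survival on the 4th day, expressed as the CD50 (mg/kg) interpolated from several doses. Mice in groups of 5 received an intraperitoneal aqueous bacterial suspension, then subcutaneous compound in physiological sodium chloride solution 1 and 3 hours later.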

Enterobacter cloacae [4] = assay: as above; settings: sc, 96 h; mice infected i.p. with Enterobacter cloacae; s.c. twice, 1 h and 3 h after infection; survival on 4th day; read-out: CD50 (dosage at which 50% of the animals survive)
Outline: as §1

Klebsiella pneumoniae = assay: as above; settings: sc, 96 h; mice infected i.p. with Klebsiella pneumoniae; s.c. twice, 1 h and 3 h after infection; survival on 4th day; read-out: CD50 (dosage at which 50% of the animals survive)
Outline: as §2

Serratia marcescens [5] = assay: as above; settings: sc, 96 h, 1 h and 3 h after infection, survival on 4th day, read-out: CD50 (dosage at which 50% of the animals survive)
Outline: as §2

Escherichia coli [6] = assay: as above; settings: sc, 96 h; mice infected i.p. with Escherichia coli; s.c. twice, 1 h and 3 h after infection; survival on 4th day; read-out: CD50 (dosage at which 50% of the animals survive)
Outline: as §2

Pseudomonas aeruginosa [7] = assay: Activity in vitro: minimum inhibitory concentration; format: cell-based
Streptococcus pneumoniae = assay: as above; format: cell-based
Toxicity, LD50 = settings: in vivo
Serratia marcescens [8] = assay: Activity in vitro: minimum inhibitory concentration; format: cell-based
Pseudomonas aeruginosa [9] = assay: Activity in vivo: survival of intraperitoneally infected mice; settings: sc, 96 h; mice infected i.p. with Pseudomonas aeruginosa; s.c. three times, 1 h, 3 h and 5 h after infection; survival on 4th day; read-out: CD50 (dosage at which 50% of the animals survive)
Outline: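 Mice (5/group) infected intraperitoneally, then given compound in physiological saline subcutaneously at 1 and 3 h post-infection (in some cases three times, at 1, 3 and 5 h). Survivors counted on day 4; CD50 (mg/kg), the dose giving 50% survival, interpolated from several dosages.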

Escherichia coli [10] = assay: Activity in vitro: minimum inhibitory concentration; format: cell-based
Staphylococcus aureus [11] = assay: as above; format: cell-based
Proteus inconstans = assay: as above; format: cell-based; settings: Providencia alcalifaciens
Proteus morganii = assay: as above; format: cell-based; settings: Morganella morganii
Staphylococcus aureus [12] = assay: Activity in vivo: survival of intraperitoneally infected mice; settings: sc, 96 h; mice infected i.p. with Staphylococcus aureus; s.c. twice, 1 h and 3 h after infection; survival on 4th day; read-out: CD50 (dosage at which 50% of the animals survive)
Outline: as §1

[13] = Streptococcus pyogenes strain 1, read-out: Minimum inhibitory concentration
[14] = Streptococcus pyogenes strain 2, read-out: Minimum inhibitory concentration
[15] = Streptococcus faecalis strain 1
[16] = Streptococcus faecalis strain 2
[17] = Enterobacter aerogenes strain 1
[18] = Enterobacter aerogenes strain 2
[19] = mice infected i.p. with Serratia marcescens strain 1, s.c. twice
[20] = Pseudomonas aeruginosa strain 1
[21] = Pseudomonas aeruginosa strain 3

Question: For `CO/N=C(\C(=O)N[C@@H]1C(=O)N2C(C(=O)O)=C(CSc3nc(=O)c(O)nn3C)CS[C@H]12)c1c[se]c(N)n1` [Product C, (6R, 7R)-7-[2-(2-amino-4-selenazolyl)-2-[(Z)-methoxyimino]-acetamido]-3-[[(2,5-dihydro-6-hydroxy-2-methyl-5-oxo-as-triazin-3-yl)thio]methyl]-8-oxo-5-thia-1-azabicyclo[4.2.0]oct-2-ene-2-carboxylic acid disodium salt], which MIC (Streptococcus pyogenes [1]; [13]) is on record?
Answer: 0.05 µg/mL

Question: What about the MIC (Streptococcus pyogenes [1]; [14]) of the same compound?
Answer: ≤ 0.012 µg/mL

Question: And the MIC (Enterobacter cloacae [2]; Enterobacter cloacae strain 1)?
Answer: > 100 µg/mL

Question: And the MIC (Enterobacter cloacae [2]; Enterobacter cloacae strain 2)?
Answer: 3.1 µg/mL

Question: And the MIC (Enterobacter cloacae [2]; Enterobacter cloacae strain 3)?
Answer: > 100 µg/mL

Question: What about the MIC (Streptococcus faecalis; [15]) of the same compound?
Answer: > 100 µg/mL

Question: What about the MIC (Streptococcus faecalis; [16]) of the same compound?
Answer: > 100 µg/mL

Question: What about the MIC (Proteus vulgaris) of the same compound?
Answer: 1.6 µg/mL

Question: And the MIC (Proteus mirabilis; Proteus mirabilis strain 1)?
Answer: 0.012 µg/mL

Question: What about the MIC (Proteus mirabilis; Proteus mirabilis strain 2) of the same compound?
Answer: 0.025 µg/mL

Question: What about the MIC (Proteus mirabilis; Proteus mirabilis strain 3) of the same compound?
Answer: 1.6 µg/mL

Question: What about the MIC (Proteus mirabilis; Proteus mirabilis strain 4) of the same compound?
Answer: 0.012 µg/mL

Question: What about the MIC (Proteus mirabilis; Proteus mirabilis strain 5) of the same compound?
Answer: 0.012 µg/mL

Question: What about the MIC (Staphylococcus epidermis) of the same compound?
Answer: 3.1 µg/mL

Question: And the MIC (Klebsiella pseumoniae; Klebsiella pseumoniae strain 1)?
Answer: 0.1 µg/mL

Question: What about the MIC (Klebsiella pseumoniae; Klebsiella pseumoniae strain 2) of the same compound?
Answer: 0.05 µg/mL

Question: What about the MIC (Klebsiella pseumoniae; Klebsiella pseumoniae strain 3) of the same compound?
Answer: 0.1 µg/mL

Question: What about the ED50 (Neisseria moningitidis) of the same compound?
Answer: < 0.05 mg/kg

Question: And the MIC (Proteus rettgeri)?
Answer: 0.1 µg/mL

Question: What about the MIC (Streptococcus viridans) of the same compound?
Answer: 3.1 µg/mL

Question: What about the MIC (Citrobacter freundii; Citrobacter freundii strain 1) of the same compound?
Answer: 12.5 µg/mL

Question: And the MIC (Citrobacter freundii; Citrobacter freundii strain 2)?
Answer: 0.1 µg/mL

Question: What about the MIC (Enterobacter aerogenes; [17]) of the same compound?
Answer: 0.1 µg/mL

Question: And the MIC (Enterobacter aerogenes; [18])?
Answer: 0.1 µg/mL

Question: What about the ED50 (Haemophilus influenzae) of the same compound?
Answer: < 0.05 mg/kg

Question: And the ED50 (Streptococcus pyogenes [3])?
Answer: 0.04 mg/kg

Question: What about the ED50 (Enterobacter cloacae [4]) of the same compound?
Answer: 17 mg/kg

Question: What about the ED50 (Klebsiella pneumoniae) of the same compound?
Answer: 0.23 mg/kg

Question: And the ED50 (Serratia marcescens [5]; [19])?
Answer: 0.07 mg/kg

Question: What about the ED50 (Escherichia coli [6]) of the same compound?
Answer: < 0.003 mg/kg

Question: What about the MIC (Pseudomonas aeruginosa [7]; [20]) of the same compound?
Answer: 3.1 µg/mL

Question: And the MIC (Pseudomonas aeruginosa [7]; Pseudomonas aeruginosa strain 2)?
Answer: 6.3 µg/mL

Question: What about the MIC (Pseudomonas aeruginosa [7]; [21]) of the same compound?
Answer: 1.6 µg/mL

Question: And the MIC (Streptococcus pneumoniae)?
Answer: 0.05 µg/mL

Question: What about the LD50 (Toxicity, LD50; po) of the same compound?
Answer: > 5000 mg/kg

Question: What about the LD50 (Toxicity, LD50; sc) of the same compound?
Answer: > 4000 mg/kg

Question: And the MIC (Serratia marcescens [8]; Serratia marcescens strain 1)?
Answer: 0.4 µg/mL

Question: What about the MIC (Serratia marcescens [8]; Serratia marcescens strain 2) of the same compound?
Answer: 1.6 µg/mL

Question: And the MIC (Serratia marcescens [8]; Serratia marcescens strain 3)?
Answer: 0.1 µg/mL

Question: And the ED50 (Pseudomonas aeruginosa [9])?
Answer: 14 mg/kg

Question: And the MIC (Escherichia coli [10]; Escherichia coli strain 1)?
Answer: 0.1 µg/mL

Question: What about the MIC (Escherichia coli [10]; Escherichia coli strain 2) of the same compound?
Answer: 0.05 µg/mL

Question: What about the MIC (Escherichia coli [10]; Escherichia coli strain 3) of the same compound?
Answer: 0.8 µg/mL

Question: What about the MIC (Escherichia coli [10]; Escherichia coli strain 4) of the same compound?
Answer: 0.4 µg/mL

Question: What about the MIC (Escherichia coli [10]; Escherichia coli strain 5) of the same compound?
Answer: 0.2 µg/mL

Question: And the MIC (Staphylococcus aureus [11]; Staphylococcus aureus strain 1)?
Answer: 3.1 µg/mL

Question: What about the MIC (Staphylococcus aureus [11]; Staphylococcus aureus strain 2) of the same compound?
Answer: 6.3 µg/mL

Question: What about the MIC (Staphylococcus aureus [11]; Staphylococcus aureus strain 3) of the same compound?
Answer: 3.1 µg/mL

Question: And the MIC (Staphylococcus aureus [11]; Staphylococcus aureus strain 4)?
Answer: 6.3 µg/mL

Question: And the MIC (Proteus inconstans)?
Answer: 0.006 µg/mL

Question: And the MIC (Proteus morganii)?
Answer: 0.05 µg/mL

Question: Which results are given for `CO/N=C(\C(=O)N[C@@H]1C(=O)N2C(C(=O)OCOC(=O)C(C)(C)C)=C(C)CS[C@H]12)c1c[se]c(N)n1` [Product H, Methylene (6R, 7R)-7-[2-(2-amino-4-selenazolyl)-2-[(Z)-methoxyimino]-acetamido]-3-methyl-8-oxo-5-thia-1-azabicyclo[4.2.0]oct-2-ene-2-carboxylate pivalate]?
Answer: ED50 (Streptococcus pyogenes [3]): 0.13 mg/kg; ED50 (Klebsiella pneumoniae): 0.44 mg/kg; ED50 (Staphylococcus aureus [12]): > 12 mg/kg; ED50 (Escherichia coli [6]): 0.11 mg/kg; LD50 (Toxicity, LD50; po): > 5000 mg/kg; ED50 (Pseudomonas aeruginosa [9]): > 100 mg/kg

Question: Which results are given for `CC1=C(C(=O)[O-])N2C(=O)[C@@H](NC(=O)/C(=N\O)c3c[se]c(N)n3)[C@H]2SC1.[Na+]` [Product M, (6R, 7R)-7-[2-[2-amino-4-selenazolyl]-2-[(Z)-hydroxyimino]-acetamido]-3-methyl-8-oxo-5-thia-1-azabicyclo[4.2.0]oct-2-ene-2-carboxylic acid sodium salt]?
Answer: MIC (Streptococcus pyogenes [1]; [13]): 1.6 µg/mL; MIC (Streptococcus pyogenes [1]; [14]): 0.1 µg/mL; MIC (Enterobacter cloacae [2]; Enterobacter cloacae strain 1): > 200 µg/mL; MIC (Enterobacter cloacae [2]; Enterobacter cloacae strain 2): > 200 µg/mL; MIC (Enterobacter cloacae [2]; Enterobacter cloacae strain 3): > 200 µg/mL; MIC (Streptococcus faecalis; [15]): 200 µg/mL; MIC (Streptococcus faecalis; [16]): > 200 µg/mL; MIC (Proteus mirabilis; Proteus mirabilis strain 3): 0.8 µg/mL; MIC (Proteus mirabilis; Proteus mirabilis strain 4): 6.3 µg/mL; MIC (Proteus mirabilis; Proteus mirabilis strain 5): 1.6 µg/mL; MIC (Staphylococcus epidermis): 3.1 µg/mL; MIC (Klebsiella pseumoniae; Klebsiella pseumoniae strain 1): 0.8 µg/mL; MIC (Klebsiella pseumoniae; Klebsiella pseumoniae strain 2): 0.4 µg/mL; MIC (Klebsiella pseumoniae; Klebsiella pseumoniae strain 3): 0.4 µg/mL; MIC (Proteus rettgeri): 0.2 µg/mL; MIC (Streptococcus viridans): 25 µg/mL; MIC (Citrobacter freundii; Citrobacter freundii strain 1): 100 µg/mL; MIC (Citrobacter freundii; Citrobacter freundii strain 2): 1.6 µg/mL; MIC (Enterobacter aerogenes; [17]): 0.4 µg/mL; MIC (Enterobacter aerogenes; [18]): 1.6 µg/mL; ED50 (Streptococcus pyogenes [3]): 0.28 mg/kg; ED50 (Serratia marcescens [5]; [19]): 3.5 mg/kg; ED50 (Serratia marcescens [5]; mice infected i.p. with Serratia marcescens strain 2, s.c. twice): > 50 mg/kg; ED50 (Staphylococcus aureus [12]): 2.7 mg/kg; ED50 (Escherichia coli [6]): 1 mg/kg; MIC (Pseudomonas aeruginosa [7]; [20]): > 400 µg/mL; MIC (Pseudomonas aeruginosa [7]; [21]): > 400 µg/mL; MIC (Streptococcus pneumoniae): 6.3 µg/mL; MIC (Serratia marcescens [8]; Serratia marcescens strain 1): 25 µg/mL; MIC (Serratia marcescens [8]; Serratia marcescens strain 2): 100 µg/mL; MIC (Serratia marcescens [8]; Serratia marcescens strain 3): 6.3 µg/mL; MIC (Escherichia coli [10]; Escherichia coli strain 1): 0.8 µg/mL; MIC (Escherichia coli [10]; Escherichia coli strain 2): 0.4 µg/mL; MIC (Escherichia coli [10]; Escherichia coli strain 3): 50 µg/mL; MIC (Escherichia coli [10]; Escherichia coli strain 4): 200 µg/mL; MIC (Escherichia coli [10]; Escherichia coli strain 5): 3.1 µg/mL; MIC (Staphylococcus aureus [11]; Staphylococcus aureus strain 1): 3.1 µg/mL; MIC (Staphylococcus aureus [11]; Staphylococcus aureus strain 2): 6.3 µg/mL; MIC (Staphylococcus aureus [11]; Staphylococcus aureus strain 3): 3.1 µg/mL; MIC (Staphylococcus aureus [11]; Staphylococcus aureus strain 4): 6.3 µg/mL; MIC (Proteus inconstans): 0.05 µg/mL; MIC (Proteus morganii): 100 µg/mL
